Measurements taken from PubChem BioAssay AID330 (DTP/NCI, 2004).
Values joined by “and” are separate entries in the source; they are usually repeats but may differ in a detail not shown here. Identical values can stand only once. Inconclusive results and toxic doses are left out.

Tested on: P388 leukemia ip, CD2F1 mice, survival T/C
Test: NCI In Vivo Anticancer Drug Screen. Data for tumor model P388 Leukemia (intraperitoneal) in CD2F1 (CDF1) mice
Conditions: endpoint: median survival time, higher = longer survival
Outline: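 Mice carrying the transplanted tumor received test compound or vehicle. Survival was recorded in each group, and the value is the treated-group measurement divided by that of the vehicle-treated control group.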

[1] = dose: 60.0 mg/kg/injection, schedule: Q01DX005 (ip), vehicle: saline with Tween-80
[2] = dose: 120.0 mg/kg/injection, schedule: Q01DX005 (ip), vehicle: saline with Tween-80
[3] = dose: 240.0 mg/kg/injection, schedule: Q01DX005 (ip), vehicle: saline with Tween-80
[4] = dose: 50.0 mg/kg/injection, schedule: Q01DX009 (ip), vehicle: Klucel (hydroxypropylcellulose) (HPC)
[5] = dose: 50.0 mg/kg/injection, schedule: Q01DX009 (ip), vehicle: saline
[6] = dose: 100.0 mg/kg/injection, schedule: Q01DX009 (ip), vehicle: Klucel (hydroxypropylcellulose) (HPC)
[7] = dose: 100.0 mg/kg/injection, schedule: Q01DX009 (ip), vehicle: saline
[8] = dose: 200.0 mg/kg/injection, schedule: Q01DX009 (ip), vehicle: Klucel (hydroxypropylcellulose) (HPC)
[9] = dose: 200.0 mg/kg/injection, schedule: Q01DX009 (ip), vehicle: saline
[10] = dose: 100.0 mg/kg/injection, schedule: Q04DX003 (ip), vehicle: saline with Tween-80
[11] = dose: 400.0 mg/kg/injection, schedule: Q04DX003 (ip), vehicle: saline with Tween-80
[12] = dose: 50.0 mg/kg/injection, schedule: Q01DX009 (ip), vehicle: saline with Tween-80
[13] = dose: 100.0 mg/kg/injection, schedule: Q01DX009 (ip), vehicle: saline with Tween-80
[14] = dose: 50.0 mg/kg/injection, schedule: Q01DX005 (ip), vehicle: saline with Tween-80
[15] = dose: 50.0 mg/kg/injection, schedule: Q01DX005 (ip), vehicle: Klucel (hydroxypropylcellulose) (HPC)
[16] = dose: 100.0 mg/kg/injection, schedule: Q01DX005 (ip), vehicle: Klucel (hydroxypropylcellulose) (HPC)
[17] = dose: 200.0 mg/kg/injection, schedule: Q01DX005 (ip), vehicle: Klucel (hydroxypropylcellulose) (HPC)

SMILES: C[C@H]1C(=O)OCN1S(=O)(=O)C(C)(C)C
- T/C [1]: 101 % of control
- T/C [2]: 104 % of control
- T/C [3]: 102 % of control

SMILES: C[C@@H]1CC[C@@]2(NC1)O[C@H]1C[C@H]3[C@@H]4CCC5=CC(=O)CC[C@]5(C)[C@H]4CC[C@]3(C)[C@H]1[C@@H]2C
- T/C (dose: 15.0 mg/kg/injection, schedule: Q01DX009 (ip), vehicle: saline with Tween-80): 102 % of control
- T/C (dose: 30.0 mg/kg/injection, schedule: Q01DX009 (ip), vehicle: saline with Tween-80): 100 % of control
- T/C (dose: 60.0 mg/kg/injection, schedule: Q01DX009 (ip), vehicle: saline with Tween-80): 99 % of control
- T/C (dose: 120.0 mg/kg/injection, schedule: Q01DX009 (ip), vehicle: saline with Tween-80): 93 % of control

SMILES: CC1(C)NC(=O)N(Cc2ccccc2)C1=O
- T/C [4]: 102 % of control
- T/C [5]: 108 % of control
- T/C [6]: 101 % of control
- T/C [7]: 108 % of control
- T/C [8]: 102 % of control
- T/C [9]: 104 % of control

SMILES: O=c1ccnc(Sc2ncccc2[N+](=O)[O-])[nH]1
- T/C [10]: 100 % of control
- T/C (dose: 200.0 mg/kg/injection, schedule: Q04DX003 (ip), vehicle: saline with Tween-80): 100 % of control
- T/C [11]: 100 % of control

SMILES: O=[N+]([O-])c1ccc(Cl)cc1C(Nc1nncs1)Nc1nncs1
- T/C (dose: 60.0 mg/kg/injection, schedule: Q01DX005 (ip), vehicle: Klucel (hydroxypropylcellulose) (HPC)): 107 % of control
- T/C (dose: 120.0 mg/kg/injection, schedule: Q01DX005 (ip), vehicle: Klucel (hydroxypropylcellulose) (HPC)): 106 % of control

SMILES: COc1ccc(-n2cc[n+](C)c2/C=N\O)cc1
- T/C [12]: 97 % of control
- T/C [13]: 98 % of control

SMILES: COc1ccccc1N=NC1=C2Nc3ccccc3N=C1N(c1ccccc1OC)C(=S)N2c1ccccc1C
- T/C [14]: 102 % of control
- T/C (dose: 100.0 mg/kg/injection, schedule: Q01DX005 (ip), vehicle: saline with Tween-80): 103 % of control

SMILES: Cc1ccc(S(=O)(=O)N/N=C/C(N)=O)cc1
- T/C (dose: 12.5 mg/kg/injection, schedule: Q01DX009 (ip), vehicle: other): 101 % of control
- T/C (dose: 25.0 mg/kg/injection, schedule: Q01DX009 (ip), vehicle: other): 101 % of control
- T/C (dose: 50.0 mg/kg/injection, schedule: Q01DX009 (ip), vehicle: other): 96 % of control
- T/C (dose: 100.0 mg/kg/injection, schedule: Q01DX009 (ip), vehicle: other): 104 % of control
- T/C (dose: 200.0 mg/kg/injection, schedule: Q01DX009 (ip), vehicle: other): 118 % of control
- T/C (dose: 400.0 mg/kg/injection, schedule: Q01DX009 (ip), vehicle: other): 101 % of control

SMILES: NC(=O)c1nsc(-c2ccc([N+](=O)[O-])cc2)c1N
- T/C [15]: 101 % of control
- T/C [16]: 96 % of control
- T/C [17]: 92 % of control

SMILES: O=C1OC(c2ccccc2Br)=N/C1=C/c1ccccc1
- T/C [15]: 99 % of control
- T/C [16]: 91 % of control
- T/C [17]: 98 % of control

SMILES: COc1cc(OC)c(C/C=C/c2ccccc2)cc1O
- T/C (dose: 2.5 mg/kg/injection, schedule: Q01DX009 (ip), vehicle: saline with Tween-80): 100 % of control
- T/C (dose: 5.0 mg/kg/injection, schedule: Q01DX009 (ip), vehicle: saline with Tween-80): 100 % of control
- T/C (dose: 10.0 mg/kg/injection, schedule: Q01DX009 (ip), vehicle: saline with Tween-80): 102 % of control

SMILES: COC(=O)C(N)COC(=O)c1ccccc1 (configuration not stated)
- T/C (dose: 50.0 mg/kg/injection, schedule: Q01DX005 (ip), vehicle: saline): 101 % of control
- T/C (dose: 100.0 mg/kg/injection, schedule: Q01DX005 (ip), vehicle: saline): 100 % of control
- T/C (dose: 200.0 mg/kg/injection, schedule: Q01DX005 (ip), vehicle: saline): 100 % of control

SMILES: CCCc1c2cc(OC)c(OC)cc2cc2c3cc(OC)c(OC)cc3cc[n+]12 (tested in a mixture with another compound)
- T/C (dose: 25.0 mg/kg/injection, schedule: Q01DX009 (ip), vehicle: saline with Tween-80): 102 % of control
- T/C [12]: 111 % of control
- T/C [13]: 109 % of control

SMILES: COc1cc(C)c2[nH]c3c(C)c(Cl)ccc3c(=O)c2c1
- T/C (dose: 50.0 mg/kg/injection, schedule: Q01DX005 (ip), vehicle: Klucel + Tween-80): 97 % of control
- T/C (dose: 100.0 mg/kg/injection, schedule: Q01DX005 (ip), vehicle: Klucel + Tween-80): 93 % of control
- T/C (dose: 200.0 mg/kg/injection, schedule: Q01DX005 (ip), vehicle: Klucel + Tween-80): 96 % of control

SMILES: C/C(=N/NC(N)=O)c1ccc2c3c(cc(Br)c2c1)CCCC3
- T/C (dose: 6.25 mg/kg/injection, schedule: Q01DX005 (ip), vehicle: saline with Tween-80): 99 % of control
- T/C (dose: 12.5 mg/kg/injection, schedule: Q01DX005 (ip), vehicle: saline with Tween-80): 99 % of control
- T/C (dose: 25.0 mg/kg/injection, schedule: Q01DX005 (ip), vehicle: saline with Tween-80): 95 % of control
- T/C [14]: 91 % of control

SMILES: COc1cc2cc(c1Cl)N(C)C(=O)CC(OC(=O)C(C)N(C)C(=O)C(C)C)C1(C)OC1C(C)C1CC(O)(NC(=O)O1)C(OC)/C=C/C=C(C)C2OC (configuration not stated)
- T/C (dose: 4.0 micrograms/kg/injection, schedule: Q01DX009 (ip), vehicle: Klucel (hydroxypropylcellulose) (HPC)): 157 % of control and 163 % of control
- T/C (dose: 4.0 micrograms/kg/injection, schedule: Q01DX009 (ip), vehicle: distilled water + alcohol): 108 % of control
- T/C (dose: 8.0 micrograms/kg/injection, schedule: Q01DX009 (ip), vehicle: Klucel (hydroxypropylcellulose) (HPC)): 168 % of control
- T/C (dose: 8.0 micrograms/kg/injection, schedule: Q01DX009 (ip), vehicle: distilled water + alcohol): 108 % of control and 115 % of control
- T/C (dose: 15.5 micrograms/kg/injection, schedule: Q01DX009 (ip), vehicle: none): 157 % of control
- T/C (dose: 16.0 micrograms/kg/injection, schedule: Q01DX009 (ip), vehicle: Klucel (hydroxypropylcellulose) (HPC)): 154 % of control
- T/C (dose: 16.0 micrograms/kg/injection, schedule: Q01DX009 (ip), vehicle: distilled water + alcohol): 100 % of control and 123 % of control
- T/C (dose: 31.0 micrograms/kg/injection, schedule: Q01DX009 (ip), vehicle: none): 150 % of control
- T/C (dose: 32.0 micrograms/kg/injection, schedule: Q01DX009 (ip), vehicle: distilled water + alcohol): 100 % of control
- T/C (dose: 64.0 micrograms/kg/injection, schedule: Q01DX009 (ip), vehicle: Klucel (hydroxypropylcellulose) (HPC)): 91 % of control
- T/C (dose: 64.0 micrograms/kg/injection, schedule: Q01DX009 (ip), vehicle: distilled water + alcohol): 100 % of control
- T/C (dose: 128.0 micrograms/kg/injection, schedule: Q01DX009 (ip), vehicle: distilled water + alcohol): 106 % of control

SMILES: C=C1CC(OC(=O)C(C)C)C2C(=C)C(=O)O[C@@H]2C2C(=C)[C@@H](O)CC12 (some centres not stated)
- T/C (dose: 20.0 mg/kg/injection, schedule: Q01DX005 (ip), vehicle: saline with Tween-80): 102 % of control
- T/C (dose: 40.0 mg/kg/injection, schedule: Q01DX005 (ip), vehicle: saline with Tween-80): 106 % of control
- T/C (dose: 80.0 mg/kg/injection, schedule: Q01DX005 (ip), vehicle: saline with Tween-80): 115 % of control

SMILES: O=C(/C=C/c1ccc(Cl)c(Cl)c1)C1CCCCC1
- T/C [4]: 103 % of control
- T/C [6]: 99 % of control

SMILES: C#C/C=C/CC1OC(C(Br)CC)/C=C\CCC1Cl (configuration not stated)
- T/C (dose: 2.0 mg/kg/injection, schedule: Q01DX009 (ip), vehicle: Klucel (hydroxypropylcellulose) (HPC)): 94 % of control
- T/C (dose: 4.0 mg/kg/injection, schedule: Q01DX009 (ip), vehicle: Klucel (hydroxypropylcellulose) (HPC)): 98 % of control
- T/C (dose: 8.0 mg/kg/injection, schedule: Q01DX009 (ip), vehicle: Klucel (hydroxypropylcellulose) (HPC)): 103 % of control
- T/C (dose: 16.0 mg/kg/injection, schedule: Q01DX009 (ip), vehicle: Klucel (hydroxypropylcellulose) (HPC)): 94 % of control

SMILES: COC(=O)C1=C(C(=O)OC)C2C=CC1C(=O)N2/C=C/c1ccccc1 (configuration not stated)
- T/C [10]: 102 % of control
- T/C [11]: 117 % of control

SMILES: CC(C)N1CCN(c2ccncc2S(=O)(=O)N2CCCC2)CC1
- T/C [5]: 87 % of control
- T/C [7]: 99 % of control
- T/C [9]: 97 % of control

SMILES: O=C1c2c(ccc3ccccc23)CN2CCCCC12 (configuration not stated)
- T/C [1]: 101 % of control
- T/C [2]: 103 % of control
- T/C [3]: 103 % of control

SMILES: NC(Cc1ccc2ccccc2c1Cl)C(=O)O (configuration not stated)
- T/C [4]: 102 % of control
- T/C [6]: 100 % of control
- T/C [8]: 100 % of control
